Test results published in PubChem BioAssay (NCI).
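Values below derive from 48-hour exposures of cells grown in 96-well plates, with endpoints linearly interpolated between the two concentrations bracketing the appropriate inhibition level. The concentration for 50% growth inhibition is given as GI50. TGI marks complete inhibition of growth.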

What was measured:
Test in all cases: NCI tumour cell line growth inhibition, 48 h
[1] = system: TK-10 renal
[2] = system: UACC-257 melanoma
[3] = system: LOX IMVI melanoma
[4] = system: UO-31 renal
[5] = system: MDA-MB-231 breast
[6] = system: HOP-92 NSCLC
[7] = system: EKVX NSCLC
[8] = system: 786-0 renal
[9] = system: SN12C renal
[10] = system: SF-295 CNS
[11] = system: MCF7 breast
[12] = system: RXF 393 renal
[13] = system: SK-MEL-5 melanoma
[14] = system: SF-268 CNS
[15] = system: COLO 205 colon
[16] = system: HCT-15 colon
[17] = system: DU-145 prostate
[18] = system: MDA-MB-435
[19] = system: HL-60(TB) leukemia
[20] = system: CCRF-CEM leukemia
[21] = system: SK-MEL-28 melanoma
[22] = system: NCI-H522 lung
[23] = system: BT-549 breast
[24] = system: SR leukemia
[25] = system: OVCAR-8 ovarian
[26] = system: K-562 leukemia
[27] = system: HCT-116 colon
[28] = system: IGROV1 ovarian
[29] = system: U251 CNS
[30] = system: NCI-H460 lung
[31] = system: HS 578T breast
[32] = system: A549 NSCLC
[33] = system: SK-OV-3 ovarian
[34] = system: NCI/ADR-RES ovarian
[35] = system: SW-620 colon
[36] = system: MALME-3M melanoma
[37] = system: NCI-H23 lung
[38] = system: UACC-62 melanoma
[39] = system: MOLT-4 leukemia
[40] = system: NCI-H226 lung
[41] = system: PC-3 prostate
[42] = system: HOP-62 NSCLC
[43] = system: OVCAR-3 ovarian
[44] = system: RPMI-8226 leukemia
[45] = system: A498 renal
[46] = system: CAKI-1 renal
[47] = system: T-47D breast
[48] = system: SF-539 CNS
[49] = system: OVCAR-5 ovarian
[50] = system: SNB-75 CNS
[51] = system: HCC-2998 colon
[52] = system: SNB-19 CNS
[53] = system: KM12 colon
[54] = system: SK-MEL-2 melanoma
[55] = system: HT29 colon
[56] = system: ACHN renal
[57] = system: M14 melanoma
[58] = system: OVCAR-4 ovarian

O=C(c1ccco1)c1c(C(F)(F)F)n([O-])c2ccc(C(F)(F)F)cc2[n+]1=O
GI50 [1]: 926 nM | TGI [1]: 2300 nM | GI50 [2]: 1490 nM | TGI [2]: 3060 nM | GI50 [3]: 127 nM | TGI [3]: 257 nM | GI50 [4]: 205 nM | TGI [4]: 439 nM | GI50 [5]: 298 nM | TGI [5]: 768 nM | GI50 [6]: 280 nM | TGI [6]: 718 nM | GI50 [7]: 727 nM | TGI [7]: 2070 nM | GI50 [8]: 426 nM | TGI [8]: 831 nM | GI50 [9]: 255 nM | TGI [9]: 556 nM | GI50 [10]: 626 nM | TGI [10]: 1710 nM | GI50 [11]: 307 nM | TGI [11]: 872 nM | GI50 [12]: 179 nM | TGI [12]: 512 nM | GI50 [13]: 508 nM | TGI [13]: 1090 nM | GI50 [14]: 266 nM | TGI [14]: 674 nM | GI50 [15]: 468 nM | TGI [15]: 987 nM | GI50 [16]: 291 nM | TGI [16]: 749 nM | GI50 [17]: 500 nM | TGI [17]: 925 nM | GI50 [18]: 1160 nM | TGI [18]: 2560 nM | GI50 [19]: 69.6 nM | TGI [19]: 310 nM | GI50 [20]: 207 nM | TGI [20]: 793 nM | GI50 [21]: 717 nM | TGI [21]: 1910 nM | GI50 [22]: 462 nM | TGI [22]: 1160 nM | GI50 [23]: 177 nM | TGI [23]: 339 nM | GI50 [24]: 127 nM | TGI [24]: 408 nM | GI50 [25]: 310 nM | TGI [25]: 1150 nM | GI50 [26]: 287 nM | TGI [26]: 765 nM | GI50 [27]: 147 nM | TGI [27]: 279 nM | GI50 [28]: 368 nM | TGI [28]: 1480 nM | GI50 [29]: 217 nM | TGI [29]: 536 nM | GI50 [30]: 434 nM | TGI [30]: 1570 nM | GI50 [31]: 654 nM | TGI [31]: 2740 nM | GI50 [32]: 254 nM | TGI [32]: 700 nM | GI50 [33]: 1120 nM | TGI [33]: 2480 nM | GI50 [34]: 257 nM | TGI [34]: 939 nM | GI50 [35]: 159 nM | TGI [35]: 338 nM | GI50 [36]: 595 nM | TGI [36]: 1470 nM | GI50 [37]: 853 nM | TGI [37]: 2300 nM | GI50 [38]: 1110 nM | TGI [38]: 2320 nM | GI50 [39]: 91.2 nM | TGI [39]: 313 nM | GI50 [40]: 657 nM | TGI [40]: 1550 nM | GI50 [41]: 132 nM | TGI [41]: 262 nM | GI50 [42]: 1470 nM | TGI [42]: 2950 nM | GI50 [43]: 383 nM | TGI [43]: 835 nM | GI50 [44]: 383 nM | TGI [44]: 1680 nM | GI50 [45]: 1410 nM | TGI [45]: 2760 nM | GI50 [46]: 224 nM | TGI [46]: 490 nM | GI50 [47]: 344 nM | TGI [47]: 1750 nM | GI50 [48]: 475 nM | TGI [48]: 910 nM | GI50 [49]: 380 nM | TGI [49]: 1380 nM | GI50 [50]: 576 nM | TGI [50]: 1550 nM | GI50 [51]: 1040 nM | TGI [51]: 2500 nM | GI50 [52]: 1510 nM | TGI [52]: 2920 nM | GI50 [53]: 467 nM | TGI [53]: 973 nM | GI50 [54]: 1710 nM | TGI [54]: 3490 nM | GI50 [55]: 243 nM | TGI [55]: 674 nM | GI50 [56]: 168 nM | TGI [56]: 362 nM | GI50 [57]: 1040 nM | TGI [57]: 2480 nM

COc1cc2nc(-c3cccs3)oc(=O)c2cc1OC
TGI [1]: > 100000 nM | TGI [2]: > 100000 nM | TGI [3]: > 100000 nM | TGI [4]: > 100000 nM | TGI [5]: > 100000 nM | TGI [6]: > 100000 nM | TGI [7]: > 100000 nM | TGI [8]: > 100000 nM | TGI [9]: > 100000 nM | TGI [10]: > 100000 nM | TGI [11]: > 100000 nM | TGI [12]: > 100000 nM | TGI [13]: > 100000 nM | TGI [14]: > 100000 nM | TGI [15]: > 100000 nM | TGI [16]: > 100000 nM | TGI [17]: > 100000 nM | TGI [18]: > 100000 nM | TGI [19]: > 100000 nM | TGI [20]: > 100000 nM | TGI [21]: > 100000 nM | TGI [22]: > 100000 nM | TGI [23]: > 100000 nM | TGI [24]: > 100000 nM | TGI [25]: > 100000 nM | TGI [26]: > 100000 nM | TGI [27]: > 100000 nM | TGI [28]: > 100000 nM | TGI [29]: > 100000 nM | TGI [30]: > 100000 nM | TGI [31]: > 100000 nM | TGI [32]: > 100000 nM | TGI [33]: > 100000 nM | TGI [34]: > 100000 nM | TGI [35]: > 100000 nM | TGI [36]: > 100000 nM | TGI [37]: > 100000 nM | TGI [38]: > 100000 nM | TGI [39]: > 100000 nM | TGI [40]: > 100000 nM | TGI [41]: > 100000 nM | TGI [42]: 69100 nM | TGI [43]: > 100000 nM | TGI [44]: > 100000 nM | TGI [45]: > 100000 nM | TGI [46]: > 100000 nM | TGI [47]: > 100000 nM | TGI [48]: > 100000 nM | TGI [49]: > 100000 nM | TGI [50]: > 100000 nM | TGI [52]: > 100000 nM | TGI [53]: > 100000 nM | TGI [54]: > 100000 nM | TGI [55]: > 100000 nM | TGI [56]: > 100000 nM | TGI [58]: > 100000 nM | TGI [57]: > 100000 nM
